# Measured values: patent US10105348B2, “Use of 2-(5S-methyl-2-oxo-4R-phenyl-pyrrolidin-1-yl)-acetamide in the treatment of seizures” (Latvian Institute of Organic Synthesis, priority 2015, dated 2018)
# Columns and labels:
# [1] = system: PTZ-induced clonic and tonic seizures; assay: Timed i.v. pentylenetetrazol (PTZ) infusion seizure threshold test; format: in vivo; conditions: male ICR mice
# Protocol: (§1) Male ICR mice (Harlan Laboratories BV, Netherlands, ICR (CD-1)) weighing 23-25 g were housed under standard conditions (21-23° C., 50%±10% relative humidity, 12 h light-dark cycle) with unlimited access to standard food (R70 diet, Lactamin AB, Sweden) and water. All experimental procedures were carried out in accordance with guidelines of the EU Directive 2010/63/EU and were approved by the Ethics Council of Animal Protection at the Veterinary and Food Service, Riga, Latvia.
# (§2) To accurately detect even slight modulatory effects on convulsive tendencies, we employed the more sensitive intravenous (i.v.) administration route of pentylenetetrazol (PTZ) administration (Loscher W, Honack D, Fassbender C P, Nolting B (1991). The role of technical, biological and pharmacological factors in the laboratory evaluation of anticonvulsant drugs. III. Pentylenetetrazole seizure models. Epilepsy Res 8:171-189; Mandhane S N, Aavula K, Rajamannar T (2007). Timed pentylenetetrazol infusion test: a comparative analysis with s.c.PTZ and MES models of anticonvulsant screening in mice. Seizure 16:636-644) and used bicucculine (BIC) to inhibit the GABA pathway and to induce seizures (Meldrum B S (1975). Epilepsy and gamma-aminobutyric acid-mediated inhibition. Int Rev Neurobiol 17:1-36.). Chemoconvulsant-induced clonic and tonic seizures were initiated by inserting a 30-gauge needle into the tail vein of mice and infusing PTZ 1% or BIC 0.01% at a constant rate of 10 μl/1 s to restrained animals. Infusion was halted when forelimb clonus followed by tonic seizures of the full body were observed. Minimal doses of PTZ or BIC (mg/kg of mouse weight) necessary to induce clonic and tonic seizures were considered as an index of seizure threshold.
# (§3) 2-(5S-Methyl-2-oxo-4R-phenyl-pyrrolidin-1-yl)-acetamide (E1R) was administered i.p. at doses of 10 and 50 mg/kg. The test session was started 60 min after the administration of E1R or saline.
# [2] = system: BIC-induced clonic and tonic seizures; assay: Timed i.v. bicucculine (BIC) infusion seizure threshold test; format: in vivo; conditions: male ICR mice
# Protocol: as §1, §2, §3
# [3] = E1R 10 mg/kg i.p. 60 min before 1% PTZ i.v. infusion
# [4] = E1R 50 mg/kg i.p. 60 min before 1% PTZ i.v. infusion
# [5] = E1R 10 mg/kg i.p. 60 min before 0.01% BIC i.v. infusion
# [6] = E1R 50 mg/kg i.p. 60 min before 0.01% BIC i.v. infusion
smiles,measurement,setting,value
"C[C@H]1[C@@H](c2ccccc2)CC(=O)N1CC(N)=O [E1R, 2-(5S-Methyl-2-oxo-4R-phenyl-pyrrolidin-1-yl)-acetamide]","Dose of PTZ, mg/kg ± SEM, Clonic seizure (threshold)",[1]; [3],27 ± 2 mg/kg
same,"Dose of PTZ, mg/kg ± SEM, Tonic seizure (threshold)",[1]; [3],64 ± 6 mg/kg
same,"Induction of tonic seizures by PTZ, effect versus saline (in words)",[1]; E1R 10 mg/kg i.p.,significantly reduced the induction of tonic seizures
same,"Dose of PTZ, mg/kg ± SEM, Clonic seizure (threshold)",[1]; [4],30 ± 1 mg/kg
same,"Dose of PTZ, mg/kg ± SEM, Tonic seizure (threshold)",[1]; [4],80 ± 8 mg/kg
same,"Clonic and tonic seizures-inducing doses of PTZ, change versus saline (in words)",[1]; E1R 50 mg/kg i.p.,significant increased
same,"Dose of BIC, mg/kg ± SEM, Clonic seizure (threshold)",[2]; [5],0.42 ± 0.02 mg/kg
same,"Dose of BIC, mg/kg ± SEM, Tonic seizure (threshold)",[2]; [5],0.88 ± 0.08 mg/kg
same,"Dose of BIC, mg/kg ± SEM, Clonic seizure (threshold)",[2]; [6],0.48 ± 0.03 mg/kg
same,"Dose of BIC, mg/kg ± SEM, Tonic seizure (threshold)",[2]; [6],1.15 ± 0.09 mg/kg
same,"Clonic and tonic seizures-inducing doses of BIC, change versus saline (in words)",[2]; E1R 50 mg/kg i.p.,significant increased
